Assay results: ChEMBL document CHEMBL1201862, “PubChem BioAssay data set” (2004)
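Exposure lasted 48 hours, with cells grown in 96-well plates and compounds tested at five concentrations. GI50: concentration for 50% inhibition of growth.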 Calls of active or inactive are those of the source. No stated cut-off is given here; in the data, active = GI50 up to about 1.1 µM and inactive = higher.

Assays:
Assay in all cases: NCI anticancer screen, dose series, 48 h
[1] = system: NCI-H460
[2] = system: SF-295
[3] = system: KM12
[4] = system: TK-10
[5] = system: SK-MEL-2
[6] = system: IGROV-1
[7] = system: SK-MEL-28
[8] = system: 786-0
[9] = system: SNB-19
[10] = system: EKVX
[11] = system: NCI-H522
[12] = system: UACC-62
[13] = system: SF-268
[14] = system: UACC-257
[15] = system: SN12C
[16] = system: M14
[17] = system: NCI-H226

Measured: GI50

Cc1nc(-n2nc(-c3ccccc3)cc2-c2ccccc2)sc1C(=O)/C=C/c1cccc([N+](=O)[O-])c1
inactive: [1] 25.8 µM | [2] 20.1 µM | [3] 2.62 µM | [4] 36 µM | [5] 17.7 µM | [6] 24.1 µM | [7] 17.1 µM | [8] 12.7 µM | [9] 11.4 µM | [10] 34.7 µM | [11] 13.8 µM | [12] 13.8 µM | [13] 12.3 µM | [14] 22.5 µM | [15] 19.8 µM

Cc1ccc(C)c2c1C1CCCCC3(OCCCO3)C21O (stereo not given)
inactive: [16] > 100 µM | [1] > 100 µM | [2] > 100 µM | [3] > 100 µM | [4] > 100 µM | [5] > 100 µM | [6] > 100 µM | [7] > 100 µM | [8] > 100 µM | [9] > 100 µM | [11] > 100 µM | [12] > 100 µM | [13] > 100 µM | [17] > 100 µM | [14] > 100 µM | [15] > 100 µM

CN(C)C(=O)Oc1c(-c2ccccc2)c(=O)n2c3ccccc3n3c(=O)n(C)c(=O)c1c23
inactive: [16] > 100 µM | [1] > 100 µM | [2] > 100 µM | [3] > 10 µM | [4] > 100 µM | [5] > 100 µM | [6] > 100 µM | [7] > 100 µM | [8] > 100 µM | [9] > 100 µM | [10] > 100 µM | [12] > 100 µM | [13] > 100 µM | [14] > 100 µM | [15] > 100 µM

C/C(=N\NC(=O)CC(=O)Nc1ccc(C)cc1)c1cc2ccccc2oc1=O
inactive: [16] > 100 µM | [1] > 100 µM | [2] > 100 µM | [3] > 100 µM | [4] > 100 µM | [5] > 100 µM | [6] > 100 µM | [7] > 100 µM | [8] > 100 µM | [9] > 100 µM | [10] > 100 µM | [11] > 100 µM | [12] > 100 µM | [17] > 100 µM | [14] > 100 µM | [15] > 100 µM

CN(C(=O)c1cccs1)C(=S)N1CCN(c2ccccn2)CC1
inactive: [16] > 100 µM | [1] > 100 µM | [2] > 100 µM | [3] > 100 µM | [4] > 100 µM | [5] > 100 µM | [6] > 100 µM | [7] > 100 µM | [8] > 100 µM | [9] > 100 µM | [11] > 100 µM | [12] > 100 µM | [13] > 100 µM | [17] > 100 µM | [14] > 100 µM | [15] > 100 µM

CN(CCS(=O)(=O)N1C(=O)C2CCCN2C(=O)[C@@H]1Cc1ccccc1)C(=O)OCc1ccccc1 (stereo not given in full)
inactive: [16] 45.6 µM | [1] 47.4 µM | [2] 62.2 µM | [3] 48.2 µM | [4] 73.3 µM | [6] > 100 µM | [7] 93.5 µM | [8] > 100 µM | [9] 41.6 µM | [10] 30.9 µM | [11] 39.5 µM | [12] 38.8 µM | [13] 61.1 µM | [17] 37.8 µM | [14] 69 µM | [15] 91.6 µM

O=c1sc(-c2nc3ccccc3[nH]2)c(/N=C/c2ccccc2)n1-c1ccccc1
inactive: [16] 48.9 µM | [2] 40.9 µM | [3] 73.3 µM | [4] 62.8 µM | [5] 63 µM | [6] 97.7 µM | [7] > 100 µM | [8] 42.9 µM | [9] 53.7 µM | [10] > 100 µM | [11] 90.2 µM | [12] 52.5 µM | [13] 91.4 µM | [17] 15.4 µM | [14] > 100 µM | [15] 73.3 µM

O=C1Cc2nc(CO)c(CO)c(CO)c2CO1
inactive: [16] > 100 µM | [1] > 100 µM | [2] > 100 µM | [3] > 100 µM | [4] > 100 µM | [5] > 100 µM | [6] > 100 µM | [7] > 100 µM | [8] > 100 µM | [9] > 100 µM | [10] > 100 µM | [11] > 100 µM | [12] > 100 µM | [13] > 100 µM | [14] > 100 µM | [15] > 100 µM

CC(=O)c1ccc(N2C(=O)C3c4[nH]c5ccccc5c4C4CCC(C(C)(C)C)CC4C3C2=O)cc1 (stereo not given)
inactive: [16] 23.9 µM | [2] 28.7 µM | [6] 40.6 µM | [7] 28.8 µM | [8] 18.6 µM | [9] 62.2 µM | [10] 30.5 µM | [11] 24.4 µM | [12] 21.1 µM | [13] 17.3 µM | [17] 18.7 µM | [14] 35.2 µM | [15] 18.5 µM

C=CCC(N(C)C(=O)[C@H](Cc1ccccc1)NC(=O)OCc1ccccc1)P(=O)(Oc1ccccc1)Oc1ccccc1 (stereo not given in full)
inactive: [16] > 100 µM | [1] 6.1 µM | [2] > 100 µM | [3] > 100 µM | [4] > 100 µM | [5] > 100 µM | [6] > 100 µM | [7] > 100 µM | [8] > 100 µM | [9] > 100 µM | [10] > 100 µM | [11] > 100 µM | [12] > 100 µM | [13] > 100 µM | [17] > 100 µM | [14] > 100 µM | [15] > 100 µM

O=C1CCCCCCCCCCC(=O)N2CCOCCOCCN1Cc1cccc(n1)C2
inactive: [16] > 100 µM | [1] > 100 µM | [2] 65.5 µM | [3] > 100 µM | [4] > 100 µM | [5] > 100 µM | [6] > 100 µM | [7] > 100 µM | [8] > 100 µM | [9] > 100 µM | [10] > 100 µM | [11] 85.1 µM | [12] > 100 µM | [13] > 100 µM | [17] > 100 µM | [14] > 100 µM | [15] > 100 µM

Cc1c(C(=O)CC(=O)C(=O)Nc2cccc(C(F)(F)F)c2)[n+]([O-])c2ccccc2[n+]1[O-]
inactive: [16] 3.37 µM | [1] 2.97 µM | [2] 10.6 µM | [3] 4.1 µM | [4] 28.2 µM | [5] 4.28 µM | [6] 2.74 µM | [7] 7.35 µM | [8] 5.79 µM | [9] 4.88 µM | [10] 5.07 µM | [11] 2.31 µM | [12] 2.76 µM | [13] 3.67 µM | [17] 30.8 µM | [14] 2.56 µM | [15] 3.37 µM

O=C(/C=C/c1ccco1)N1CCN(Cc2ccccc2)CC1
inactive: [16] > 100 µM | [1] > 100 µM | [2] > 100 µM | [3] > 100 µM | [4] > 100 µM | [6] > 100 µM | [7] > 100 µM | [8] > 100 µM | [9] > 100 µM | [10] > 100 µM | [11] > 100 µM | [12] > 100 µM | [13] > 100 µM | [14] > 100 µM | [15] > 100 µM

O=C(COc1ccc(Br)cc1Br)N1N=C(c2ccc([N+](=O)[O-])o2)CC1(O)c1ccccc1 (stereo not given)
inactive: [16] 10.1 µM | [1] 6.24 µM | [2] 18.7 µM | [3] 17.4 µM | [5] 12.5 µM | [6] 19.5 µM | [7] 12.6 µM | [8] 15.6 µM | [9] 19.3 µM | [10] 2.79 µM | [11] 5.48 µM | [12] 4.95 µM | [13] 12.3 µM | [17] 18.2 µM | [14] 23.1 µM | [15] 12.2 µM

Cn1c2c(c3ccccc31)C1CCCCCCC1C1C(=O)OC(=O)C21 (stereo not given)
inactive: [16] 88.1 µM | [1] 36.8 µM | [2] 35.2 µM | [3] 38.9 µM | [4] > 100 µM | [6] 27.4 µM | [7] 54.1 µM | [8] > 100 µM | [9] 44.8 µM | [10] 45.5 µM | [12] 59.6 µM | [13] 45.2 µM | [17] 63 µM | [15] 39.5 µM

CC1C(=O)O[C@H]2C1CC[C@@]1(C)[C@H](O)CC[C@@]13C[C@]2(O)OO3 (stereo not given in full)
inactive: [16] > 100 µM | [1] > 100 µM | [2] > 100 µM | [4] > 100 µM | [6] > 100 µM | [7] > 100 µM | [8] > 100 µM | [9] > 100 µM | [12] > 100 µM | [13] > 100 µM | [17] > 100 µM | [14] > 100 µM | [15] > 100 µM

CC1C[C@@]2(c3ccccc3)C(=O)CCC[C@H]2N1 (stereo not given in full)
inactive: [16] > 100 µM | [1] > 100 µM | [2] > 100 µM | [3] > 100 µM | [4] > 100 µM | [5] > 100 µM | [6] > 100 µM | [7] > 100 µM | [8] > 100 µM | [9] > 100 µM | [10] > 100 µM | [11] > 100 µM | [12] > 100 µM | [13] > 100 µM | [17] > 100 µM | [14] > 100 µM | [15] > 100 µM
